US20100168176A1, “NOVEL COMPOUNDS, PHARMACEUTICAL COMPOSITIONS CONTAINING SAME, AND METHODS OF USE FOR SAME” (FASGEN LLC, priority 2006, published 2010)
Converted amounts (≈) assume the structure as drawn.

Legend:
[1] = tested on: MCF-7 human breast cancer cells; assay: [14C]acetate incorporation into total lipids; assay type: cell-based; details: MCF7
Procedure: Measurement of [^14 C]acetate Incorporation into Total Lipids and Determination of IC50 of Compounds
This assay measures the incorporation of [^14C]acetate into total lipids and is a measure of fatty acid synthesis pathway activity in vitro. It is utilized to measure inhibition of fatty acid synthesis in vitro.
MCF-7 human breast cancer cells cultured as above, are plated at 5×10^4 cells per well in 24-well plates. Following overnight incubation, the compounds to be tested, solubilized in DMSO, are added at 5, 10, and 20 μg/ml in triplicate, with lower concentrations tested if necessary. DMSO is added to triplicate wells for a vehicle control. C75 is run at 5 and 10 μg/ml in triplicate as positive controls. After 4 hours of incubation, 0.25 μCi of [^14C]acetate (10 μl volume) is added to each well.
After 2 hours of additional incubation, medium is aspirated from the wells and 800 μl of chloroform:methanol (2:1) and 700 μl of 4 mM MgCl2 is added to each well. Contents of each well are transferred to 1.5 Eppendorf tubes, and spun at full-speed for 2 minutes in a high-speed Eppendorf Microcentrifuge 5415D. After removal of the aqueous (upper) layer, an additional 700 μl of chloroform:methanol (2:1) and 500 μl of 4 mM MgCl2 are added to each tube and then centrifuged for 1 minutes as above. The aqueous layer is removed with a Pasteur pipette and discarded. An additional 400 μl of chloroform:methanol (2:1) and 200 μl of 4 mM MgCl2 are added to each tube, then centrifuged and aqueous layer is discarded. The lower (organic) phase is transferred into a scintillation vial and dried at 40° C. under N2 gas. Once dried, 3 ml of scintillant (APB #NBC5104) is added and vials are counted for ^14C. The Beckman Scintillation counter calculates the average cpm values for triplicates.
The IC50 for the compounds is defined as the concentration of drug leading to a 50% reduction in [^14C]acetate incorporation into lipids compared to controls. This is determined by plotting the average cpm for each inhibitor concentration tested, performing linear regression and computing the best-fit line, r^2 values, and 95% confidence intervals. The average cpm values are computed by the Beckman scintillation counter (Model LS6500) for each compound concentration. Computation of linear regression, best-fit line, r^2, and 95% confidence intervals are calculated using Prism Version 3.0 (Graph Pad Software).

[2] = tested on: MCF-7 human breast cancer cells; assay: XTT cytotoxicity assay, MCF-7 (M); assay type: cell-based; details: (M) or no code, MCF-7, 72 hours; for IC50: Homo sapiens, MCF7
Procedure: The XTT assay is a non-radioactive alternative for the [^51Cr] release cytotoxicity assay. XTT is a tetrazolium salt that is reduced to a formazan dye only by metabolically active, viable cells. The reduction of XTT is measured spectrophotometrically as OD490-OD650.
To measure the cytotoxicity of specific compounds against cancer cells, 9×10^3 MCF-7 human breast cancer cells, obtained from the American Type Culture Collection are plated per well in 96 well plates in DMEM medium with 10% fetal bovine serum, insulin, penicillin, and streptomycin. Following overnight culture at 37° C. and 5% CO2, the compounds to be tested, dissolved in DMSO, are added to the wells in 1 μl volume at the following concentrations: 80, 40, 20, 10, 5, 2.5, 1.25, and 0.625 μg/ml in triplicate. Additional concentrations are tested if required. 1 μl of DMSO is added to triplicate wells are the vehicle control. C75 is run at 40, 20, 10, […], 10, and 5 in triplicate as positive controls.
After 72 hours of incubation, cells are incubated for 4 hours with the XTT reagent as per manufacturer's instructions (Cell Proliferation Kit II (XTT) Roche). Plates are read at OD490 and OD650 on a Molecular Devices SpectraMax Plus Spectrophotometer. Three wells containing the XTT reagent without cells serve as the plate blank. XTT data are reported as OD490-OD650. Averages and standard error of the mean are computed using SOFTmax Pro software ([…]).
The IC50 for the compounds is defined as the concentration of drug leading to a 50% reduction in OD400-OD650 compared to controls. The OD400-OD650 are computed by the SOFTmax PRO software (Molecular Devices) for each compound concentration. IC50 is calculated by linear regression, plotting the FAS activity as percent of control versus drug concentrations. Linear regression, best-fit line, r^2, and 95% confidence intervals are determined using Prism Version 3.0 (Graph Pad Software).

OV = assay: XTT cytotoxicity assay, OV; assay type: cell-based
H = assay: Crystal violet cell growth assay, H; assay type: cell-based; details: read-out: Cr. Violet (IC50)
Procedure: Crystal Violet Cell Growth Assay
The crystal violet assay measure cell growth but not cytotoxicity. This assay employs crystal violet staining of fixed cells in 96-well plates with subsequent solubilization and measurement of OD490 on a spectrophotometer. The OD490 corresponds to cell growth per unit time measured. Cells are treated with the compounds of interest or vehicle controls and IC50 for each compound is computed.
To measure the cytotoxicity of specific compounds against cancer cells, 5×10^4 MCF-7 human breast cancer cells, obtained from the American Type Culture Collection are plated per well in 24 well plates in DMEM medium with 10% fetal bovine serum, penicillin, and streptomycin. Following overnight culture at 37° C. and 5% CO2, the compounds to be tested, dissolved in DMSO, are added to the wells in 1 μl volume at the following concentrations: 50, 40, 30, 20, and 10 μg/ml in triplicate. Additional concentrations are tested if required. 1 μl of DMSO is added to triplicate wells are the vehicle control. C75 is run at 10, and 5 μg/ml in triplicate as positive controls.
After 72 hours of incubation, cells are stained with 0.5 ml of Crystal Violet stain (0.5% in 25% methanol) in each well. After 10 minutes, wells are rinsed, air dried, and then solubilized with 0.5 ml 10% sodium dodecylsulfate with shaking for 2 hours. Following transfer of 100 μl from each well to a 96-well plate, plates are read at OD490 on a Molecular Devices SpectraMax Plus Spectrophotometer Average OD490 values are computed using SOFTmax Pro Software (Molecular Devices) and IC50 values are determined by linear regression analysis using Prism version 3.02 (Graph Pad Software, San Diego).

[3] = Weight loss screen in Balb/C mice; assay type: in vivo; details: 60 mg/kg intraperitoneally
Procedure: Weight Loss Screen for Novel FAS Inhibitors
Balb/C mice (Jackson Labs) are utilized for the initial weight loss screening. Animals are housed in temperature and 12 hour day/night cycle rooms and fed mouse chow and water ad lib. Three mice are utilized for each compound tested with vehicle controls in triplicate per experiment. For the experiments, mice are housed separately for each compound tested three mice to a cage. Compounds are diluted in DMSO at 10 mg/ml and mice are injected intraperitoneally with 60 mg/kg in approximately 100 μl of DMSO or with vehicle alone. Mice are observed and weighed daily; average weights and standard errors are computed with Excel (Microsoft). The experiment continues until treated animals reach their pretreatment weights.

FAO = FAO SC 150 / FAO Max; details: for FAO Max: at the concentration given under E18
[4] = molecular target: rat liver acyl-CoA synthetase; details: rat liver enzyme; read-out: 50% inhibition of rat liver acyl-CoA synthetase; cited from earlier work
Raji cells = details: cited from earlier work
purified human FAS = molecular target: T1, purified human FAS (Homo sapiens, UniProt P49327); assay: FAS enzymatic activity (malonyl-CoA dependent NADPH oxidation, OD340); assay type: biochemical; details: purified human FAS from ZR-75-1 cells
T1 construct: Human FAS was purified from cultured ZR-75-1 human breast cancer cells; endogenous in cells; host or cells: ZR-75-1 human breast cancer cells (ATCC); Purified by hypotonic lysis, PEG precipitations and Mono Q anion exchange
T1 sequence (P49327 whole entry): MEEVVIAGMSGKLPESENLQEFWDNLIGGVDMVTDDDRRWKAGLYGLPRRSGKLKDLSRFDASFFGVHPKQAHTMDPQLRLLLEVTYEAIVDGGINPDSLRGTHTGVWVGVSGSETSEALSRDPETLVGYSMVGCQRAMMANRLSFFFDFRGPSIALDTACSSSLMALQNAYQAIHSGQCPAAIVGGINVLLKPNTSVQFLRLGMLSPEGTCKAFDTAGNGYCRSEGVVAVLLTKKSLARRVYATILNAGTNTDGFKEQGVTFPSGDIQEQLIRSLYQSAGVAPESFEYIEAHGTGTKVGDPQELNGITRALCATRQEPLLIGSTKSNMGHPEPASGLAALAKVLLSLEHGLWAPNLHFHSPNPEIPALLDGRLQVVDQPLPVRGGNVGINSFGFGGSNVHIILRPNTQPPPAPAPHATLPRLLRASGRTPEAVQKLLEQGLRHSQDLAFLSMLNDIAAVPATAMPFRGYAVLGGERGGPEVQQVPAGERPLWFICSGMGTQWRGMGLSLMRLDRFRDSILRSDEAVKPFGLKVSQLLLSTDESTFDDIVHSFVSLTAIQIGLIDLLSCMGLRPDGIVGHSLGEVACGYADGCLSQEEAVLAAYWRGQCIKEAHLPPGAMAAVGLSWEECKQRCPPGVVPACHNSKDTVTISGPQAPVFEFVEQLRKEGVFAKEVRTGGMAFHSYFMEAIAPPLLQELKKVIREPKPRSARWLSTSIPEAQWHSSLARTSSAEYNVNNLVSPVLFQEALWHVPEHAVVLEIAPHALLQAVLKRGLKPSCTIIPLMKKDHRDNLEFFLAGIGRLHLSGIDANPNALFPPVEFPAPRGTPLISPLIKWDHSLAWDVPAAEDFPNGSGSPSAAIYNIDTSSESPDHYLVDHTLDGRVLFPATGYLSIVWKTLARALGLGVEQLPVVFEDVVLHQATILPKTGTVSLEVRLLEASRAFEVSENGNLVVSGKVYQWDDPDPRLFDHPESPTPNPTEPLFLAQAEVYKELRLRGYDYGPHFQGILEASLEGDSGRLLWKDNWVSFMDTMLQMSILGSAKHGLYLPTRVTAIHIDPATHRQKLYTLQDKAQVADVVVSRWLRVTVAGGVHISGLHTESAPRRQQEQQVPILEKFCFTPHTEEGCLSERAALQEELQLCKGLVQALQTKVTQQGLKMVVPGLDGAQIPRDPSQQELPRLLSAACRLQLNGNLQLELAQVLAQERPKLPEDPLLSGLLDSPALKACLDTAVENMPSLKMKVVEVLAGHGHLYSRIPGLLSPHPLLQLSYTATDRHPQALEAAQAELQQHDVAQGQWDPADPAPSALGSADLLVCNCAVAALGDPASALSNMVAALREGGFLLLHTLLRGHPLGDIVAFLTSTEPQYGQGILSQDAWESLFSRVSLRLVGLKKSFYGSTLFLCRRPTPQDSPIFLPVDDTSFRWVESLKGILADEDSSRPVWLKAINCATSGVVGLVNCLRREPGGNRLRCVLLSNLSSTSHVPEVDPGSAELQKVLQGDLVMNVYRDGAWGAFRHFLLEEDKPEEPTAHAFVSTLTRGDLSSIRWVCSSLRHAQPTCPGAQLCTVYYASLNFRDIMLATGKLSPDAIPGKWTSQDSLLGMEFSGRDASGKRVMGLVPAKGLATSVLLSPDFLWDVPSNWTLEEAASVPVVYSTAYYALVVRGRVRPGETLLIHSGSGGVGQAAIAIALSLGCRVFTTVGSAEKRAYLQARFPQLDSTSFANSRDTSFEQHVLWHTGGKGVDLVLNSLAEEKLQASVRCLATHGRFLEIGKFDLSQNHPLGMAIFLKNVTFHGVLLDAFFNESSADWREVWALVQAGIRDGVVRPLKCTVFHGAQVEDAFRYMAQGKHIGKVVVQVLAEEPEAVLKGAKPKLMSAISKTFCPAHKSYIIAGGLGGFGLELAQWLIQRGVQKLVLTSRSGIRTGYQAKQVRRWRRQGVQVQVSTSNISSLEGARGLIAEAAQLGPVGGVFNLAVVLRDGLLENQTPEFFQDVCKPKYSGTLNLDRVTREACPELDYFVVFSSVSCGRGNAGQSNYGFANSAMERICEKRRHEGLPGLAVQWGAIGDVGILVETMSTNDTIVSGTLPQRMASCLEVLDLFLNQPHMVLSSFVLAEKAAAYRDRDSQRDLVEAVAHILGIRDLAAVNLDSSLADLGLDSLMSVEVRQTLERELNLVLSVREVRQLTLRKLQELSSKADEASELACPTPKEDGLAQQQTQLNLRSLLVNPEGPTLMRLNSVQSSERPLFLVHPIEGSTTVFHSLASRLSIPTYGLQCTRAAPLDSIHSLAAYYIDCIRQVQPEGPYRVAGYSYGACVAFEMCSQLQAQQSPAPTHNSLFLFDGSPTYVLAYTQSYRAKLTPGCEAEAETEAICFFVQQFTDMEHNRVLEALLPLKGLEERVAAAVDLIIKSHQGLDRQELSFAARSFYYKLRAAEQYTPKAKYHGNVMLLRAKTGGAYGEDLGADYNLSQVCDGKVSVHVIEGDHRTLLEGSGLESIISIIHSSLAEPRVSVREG
Procedure: Purification of FAS from ZR-75-1 Human Breast Cancer Cells.
Human FAS was purified from cultured ZR-75-1 human breast cancer cells obtained from the American Type Culture Collection. The procedure, adapted from Linn et al., 1981, and Kuhajda et al., 1994, utilizes hypotonic lysis, successive polyethyleneglycol (PEG) precipitations, and anion exchange chromatography. ZR-75-1 cells are cultured at 37° C. with 5% CO2 in RPMI culture medium with 10% fetal bovine serum, penicillin and streptomycin.
Ten T150 flasks of confluent cells are lysed with 1.5 ml lysis buffer (20 mM Tris-HCl, pH 7.5, 1 mM EDTA, 0.1 mM phenylmethanesulfonyl fluoride (PMSF), 0.1% Igepal CA-630) and dounce homogenized on ice for 20 strokes. The lysate is centrifuged in JA-20 rotor (Beckman) at 20,000 rpm for 30 minutes at 4° C. and the supernatant is brought to 42 ml with lysis buffer. A solution of 50% PEG 8000 in lysis buffer is added slowly to the supernatant to a final concentration of 7.5%. After rocking for 60 minutes at 4° C., the solution is centrifuged in JA-20 rotor (Beckman) at 15,000 rpm for 30 minutes at 4° C. Solid PEG 8000 is then added to the supernatant to a final concentration of 15%. After the rocking and centrifugation is repeated as above, the pellet is resuspended overnight at 4° C. in 10 ml of Buffer A (20 mM K2HPO4, pH 7.4). […] FAS protein concentration is determined using the Coomassie Plus Protein Assay Reagent (Pierce) according to manufacturer's specifications using BSA as a standard. […]
FAS activity is measured by monitoring the malonyl-CoA dependent oxidation of NADPH spectrophotometrically at OD340 in 96-well plates (Dils et al and Arslanian et al, 1975). […]
The assay is performed on a Molecular Devices SpectraMax Plus Spectrophotometer. […] Using the kinetic protocol, the wells are blanked on duplicate wells containing 100 μl of 100 mM K2HPO4, pH 6.5 and the plate is read at OD340 at 10 sec intervals for 5 minutes to measure any malonyl-CoA independent oxidation of NADPH. […] The plate is read again as above with the kinetic protocol to measure the malonyl-CoA dependent NADPH oxidation. […]

Compound	IC50 [1] [µg/mL]	IC50 [2] [µg/mL]	IC50 (OV) [µg/mL]	IC50 (H) [µg/mL]	Weight Loss ([3]; day 2)	FAO Max: concentration at which the maximum was seen (FAO)	FAO SC 150 (FAO)	FAO Max (FAO)	Weight Loss ([3]; day 3)	IC50 [4] [µM]	growth inhibition in Raji cells at (Raji cells) [µM]	FAS (IC50) (purified human FAS)	XTT (IC50) [2]	XTT (IC50) (OV) [µg/mL]
CCCCCCCCC1(C)SC(=O)C=C1OCC(=O)NNc1ccc(C(F)(F)F)cc1 (stereo not drawn) [Compound 12, (5-Methyl-5-octyl-2-oxo-thiophen-4-yloxy)-acetic-acid-N′-(4-trifluoromethylphenyl)-hydrazide]	11.3 (≈ 24.6 µM)	5.7 (≈ 12.4 µM)	9.6 (≈ 20.9 µM)	4.8 (≈ 10.5 µM)	60 mg/kg: 2.7% (day 2)	1.56 μg/ml ug/ml	Neg	118% at	–	–	–	–	–	–
CCCCCCCCC1(C)SC(=O)C=C1OCC(=O)NNc1cc(C(F)(F)F)ccc1Cl (stereo not drawn) [Compound 16, (5-Methyl-5-octyl-2-oxo-thiophen-4-yloxy)-acetic-acid-N′-[2-chloro-5-(trifluoromethyl)phenyl]-hydrazide]	16.5 (≈ 33.5 µM)	6 (≈ 12.2 µM)	7.2 (≈ 14.6 µM)	5.8 (≈ 11.8 µM)	–	6.25 µg/mL	Neg	137% @	60 mg/kg: 1.7 % (day 3)	–	–	–	–	–
CCCC=CCC=CC=CC=NN=NO [Triacsin C, 1-hydroxy-3-(E, E, E-2′,4′,7′-undecatrienylidine) triazene]	–	–	–	–	–	–	–	–	–	8.7	1.0	–	–	–
(5-Methyl-5-hexyl-2-oxo-thiophen-4-yloxy)-acetic-acid-M-(4-chlorophenyl)-hydrazide [Compound 21]	–	–	–	–	–	0.024 μg/ml ug/ml	Neg	104% at	–	–	–	Neg	9.8 μg/ml (M) ug/ml	11.2
